Measurements taken from paper PMC6669600 (Viruses, 2019).

The substances below were run against N36 (gp41 NHR-derived target mimic peptide) (Human immunodeficiency virus type 1 group M subtype B, UniProt P04578) (assay: CD spectroscopy of inhibitor complexed with N36). Settings: α-helical content of complex, each peptide 10 μM in PBS pH 7.2, 20 C, [θ]222; repeated two times, representative data.
Format: binding, HIV-1

Chain of N36 (gp41 NHR-derived target mimic peptide) (P04578 546-581): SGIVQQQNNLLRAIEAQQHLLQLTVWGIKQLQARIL

| Substance | CD data (with N36) Helix (%) |
| --- | --- |
| Ac-WEEWDKKIEEYTKKIEELIKKSE-NH2 [SC23EK] | 80.7 |
| Ac-MTWEEWDKKIEEYTKKIEELIKKSEEQQK-NH2 [MT-SC27EK] | 87.4 |
| Ac-MTWEEWDRKIEEYTKKIEELIKKSQNQQEKN-NH2 [MT-WQ-EKN] | 90.6 |
| Ac-WEEWDKKIEEYTKKIEELI-NH2 [SC19EK] | 80.3 |
| Ac-MTWEEWDKKIEEYTKKIEELIKKSEEQQKKNEKE-NH2 [MT-SC32EK] | 91.8 |
| Ac-WEEWDKKIEEYTKKIEELIKKSEEQQKKN-NH2 [SC29EK, reference compound] | 88.9 |
| Ac-WEEWDKKIEEYTKKIEELIKKSEE-NH2 [SC24EK] | 79.9 |
| Ac-MTWEEWDRKIEEYTKKIEELIKKSQNQQIDL-NH2 [MT-WQ-IDL, reference compound] | 86.9 |
| Ac-WMEWDREINNYTSLIHSLIEESQNQQEKAEQELL-NH2 [C34N145A] | 81 |
| Ac-WEEWDKKIEEYTKKIEELIK-NH2 [SC20EK] | 78.8 |
| Ac-WEEWDKKIEEYTKKIEELIKKSEEQQKKNEKEL-NH2 [SC33EK] | 94.1 |
| Ac-MTWEEWDKKIEEYTKKIEELIKKS-NH2 [MT-SC22EK] | 84.6 |
| Ac-WEEWDKKIEEYTKKIEELIKK-NH2 [SC21EK] | 82.8 |
| Ac-MTWEEWDKKIEEYTKKIEELIK-NH2 [MT-SC20EK] | 82 |
| Ac-WEEWDRKIEEYTKKIEELIKKSQNQQIDL-NH2 [WQ-IDL, reference compound] | 87.8 |
| Ac-WEEWDRKIEEYTKKIEELIKKSQNQQEKN-NH2 [WQ-EKN] | 89.5 |
| Ac-WEEWDKKIEEYTKKIEELIKKSEEQQKKNE-NH2 [SC30EK] | 92.9 |
| Ac-MTWEEWDKKIEEYTKKIEEL-NH2 [MT-SC18EK] | 56.3 |
| Ac-MTWEEWDKKIEEYTKKIEELIKK-NH2 [MT-SC21EK] | 83.9 |

| Substance | CD data (with N36) Helix (%) |
| --- | --- |
| Ac-MTWEEWDKKIEEYTKKIEELIKKSEEQQKKNEK-NH2 [MT-SC31EK] | 92.4 |
| Ac-MTWEEWDKKIEEYTKKIEELIKKSEEQ-NH2 [MT-SC25EK] | 84.9 |
| Ac-MTWEEWDKKIEEYTKKIEELIKKSEEQQKK-NH2 [MT-SC28EK] | 84.5 |
| Ac-MTWEEWDKKIEEYTKKIEELIKKSEEQQKKNEKEL-NH2 [MT-SC33EK] | 93.8 |
| Ac-MTWEEWDKKIEEYTKKIEELIKKSE-NH2 [MT-SC23EK] | 84.1 |
| Ac-MTWEEWDKKIEEYTKKIEELI-NH2 [MT-SC19EK] | 84.8 |
| Ac-MTWEEWDKKIEEYTKKIEELIKKSEE-NH2 [MT-SC24EK] | 83.8 |
| Ac-WEEWDKKIEEYTKKIEELIKKSEEQQKK-NH2 [SC28EK] | 87.7 |
| Ac-WEEWDKKIEEYTKKIEELIKKSEEQQKKNEKE-NH2 [SC32EK] | 93.2 |
| Ac-MTWEEWDKKIEEYTKKIEELIKKSEEQQ-NH2 [MT-SC26EK] | 85.2 |
| Ac-WEEWDKKIEEYTKKIEELIKKSEEQQKKNEK-NH2 [SC31EK] | 91.4 |
| Ac-MTWEEWDKKIEEYTKKIEELIKKSEEQQKKNE-NH2 [MT-SC30EK] | 92.6 |
| Ac-MTWEEWDKKIEEYTKKIEELIKKSEEQQKKN-NH2 [MT-SC29EK] | 92 |
| Ac-WEEWDKKIEEYTKKIEELIKKS-NH2 [SC22EK] | 85.5 |
| Ac-WEEWDKKIEEYTKKIEELIKKSEEQQK-NH2 [SC27EK] | 85.7 |
| Ac-MTWEEWDKKIEEYTKKIEELIKKSEEQQKKNEKELK-NH2 [MT-SC34EK] | 92 |
| Ac-WEEWDKKIEEYTKKIEELIKKSEEQQKKNEKELK-NH2 [SC34EK, reference compound] | 92.6 |
| Ac-WEEWDKKIEEYTKKIEELIKKSEEQ-NH2 [SC25EK] | 78.4 |
| Ac-WEEWDKKIEEYTKKIEELIKKSEEQQ-NH2 [SC26EK] | 83.1 |

What follows are substances tested against T1, N39 (gp41 NHR-derived target mimic peptide) (Human immunodeficiency virus type 1 group M subtype B, UniProt P04578) (assay: CD spectroscopy of inhibitor complexed with N39). Settings: each peptide 10 μM in PBS, repeated two times, representative data.
T1 construct: we further used the NHR-derived peptide N39
Format: binding, HIV-1

T1 sequence (P04578 528-566): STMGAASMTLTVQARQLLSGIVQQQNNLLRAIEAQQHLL

| Substance | α-helical content of complex with N39 [%] |
| --- | --- |
| enfuvirtide | 53 |
